What was measured:
NCI-H1975 [1] = assay: Antiproliferative activity against human NCI-H1975 cells expressing EGFR L858R/T790M mutant assessed as inhibition of cell growth; type: functional, cell-based
A-431 = assay: Antiproliferative activity against human A-431 cells expressing wild type EGFR assessed as inhibition of cell growth; type: functional, cell-based
[2] = tested on: Epidermal growth factor receptor (Homo sapiens), P00533 [UNDEFINED MUTATION]; assay: Inhibition of EGFR del19 mutant (unknown origin) assessed as fold change
[3] = target: T1, Epidermal growth factor receptor (Homo sapiens, UniProt P00533); assay: Inhibition of wild type EGFR in human A-431 cells; type: cell-based
[4] = target: Epidermal growth factor receptor (Homo sapiens, UniProt P00533, EX19DEL); assay: Inhibition of EGFR del19 mutant in human HCC827 cells; type: cell-based
[5] = target: T1, Epidermal growth factor receptor; assay: Inhibition of wild type EGFR in human A549 cells; type: cell-based
[6] = target: T1, Epidermal growth factor receptor; assay: Inhibition of EGFR in human NCI-H1975 cells; type: cell-based
NCI-H1975 [7] = assay: Antiproliferative activity against human NCI-H1975 cells expressing EGFR T790M mutant assessed as inhibition of EGFR phosphorylation; type: functional, cell-based
[8] = target: von Hippel-Lindau disease tumor suppressor/Epidermal growth factor receptor (Homo sapiens, UniProt P00533+P40337); assay: PROTAC activity at VHL/EGFR ins20 mutant in human HeLa cells assessed as protein degradation incubated for 24 hrs by immunoblot analysis; type: cell-based
[9] = target: von Hippel-Lindau disease tumor suppressor/Receptor tyrosine-protein kinase erbB-2 (Homo sapiens, UniProt P04626+P40337); assay: PROTAC activity at VHL/HER2 in human SK-BR-3 cells assessed as protein degradation incubated for 24 hrs by immunoblot analysis; type: cell-based
BaF3 = assay: Antiproliferative activity against mouse BaF3 cells transfected with EGFR […]/T790M mutant assessed as inhibition of cell growth; type: functional, cell-based

T1 sequence (P00533 whole entry): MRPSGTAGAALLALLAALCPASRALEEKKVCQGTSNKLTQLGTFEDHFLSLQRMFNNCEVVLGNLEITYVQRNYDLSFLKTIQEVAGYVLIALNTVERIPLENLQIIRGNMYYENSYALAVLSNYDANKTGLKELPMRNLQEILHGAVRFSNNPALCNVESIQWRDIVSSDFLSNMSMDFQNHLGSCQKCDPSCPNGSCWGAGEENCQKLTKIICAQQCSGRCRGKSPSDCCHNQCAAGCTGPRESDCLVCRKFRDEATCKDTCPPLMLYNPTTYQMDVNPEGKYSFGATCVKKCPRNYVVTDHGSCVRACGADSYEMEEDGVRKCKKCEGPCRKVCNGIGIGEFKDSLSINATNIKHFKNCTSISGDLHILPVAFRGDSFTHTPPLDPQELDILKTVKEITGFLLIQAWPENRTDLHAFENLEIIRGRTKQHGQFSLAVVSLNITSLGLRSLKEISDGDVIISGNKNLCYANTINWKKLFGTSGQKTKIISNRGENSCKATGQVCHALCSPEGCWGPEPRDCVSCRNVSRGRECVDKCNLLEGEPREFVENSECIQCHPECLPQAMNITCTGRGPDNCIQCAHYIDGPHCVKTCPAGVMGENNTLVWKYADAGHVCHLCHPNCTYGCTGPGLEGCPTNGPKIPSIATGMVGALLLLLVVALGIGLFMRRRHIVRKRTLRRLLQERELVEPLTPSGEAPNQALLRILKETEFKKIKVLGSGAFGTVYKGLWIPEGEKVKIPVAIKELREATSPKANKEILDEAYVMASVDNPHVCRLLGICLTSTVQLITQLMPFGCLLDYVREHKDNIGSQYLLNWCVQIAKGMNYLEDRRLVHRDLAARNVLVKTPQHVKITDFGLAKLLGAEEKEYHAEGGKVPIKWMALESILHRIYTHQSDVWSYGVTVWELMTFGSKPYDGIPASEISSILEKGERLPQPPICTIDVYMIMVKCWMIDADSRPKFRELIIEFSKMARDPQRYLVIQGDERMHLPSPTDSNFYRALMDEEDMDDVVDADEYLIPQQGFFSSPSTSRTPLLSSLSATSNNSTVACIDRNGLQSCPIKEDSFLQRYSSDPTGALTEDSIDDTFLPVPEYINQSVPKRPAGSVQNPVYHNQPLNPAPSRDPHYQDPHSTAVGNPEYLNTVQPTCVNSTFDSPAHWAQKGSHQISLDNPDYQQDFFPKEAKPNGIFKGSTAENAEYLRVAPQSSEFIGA
von Hippel-Lindau disease tumor suppressor/Receptor tyrosine-protein kinase erbB-2, sequence (P04626 whole entry): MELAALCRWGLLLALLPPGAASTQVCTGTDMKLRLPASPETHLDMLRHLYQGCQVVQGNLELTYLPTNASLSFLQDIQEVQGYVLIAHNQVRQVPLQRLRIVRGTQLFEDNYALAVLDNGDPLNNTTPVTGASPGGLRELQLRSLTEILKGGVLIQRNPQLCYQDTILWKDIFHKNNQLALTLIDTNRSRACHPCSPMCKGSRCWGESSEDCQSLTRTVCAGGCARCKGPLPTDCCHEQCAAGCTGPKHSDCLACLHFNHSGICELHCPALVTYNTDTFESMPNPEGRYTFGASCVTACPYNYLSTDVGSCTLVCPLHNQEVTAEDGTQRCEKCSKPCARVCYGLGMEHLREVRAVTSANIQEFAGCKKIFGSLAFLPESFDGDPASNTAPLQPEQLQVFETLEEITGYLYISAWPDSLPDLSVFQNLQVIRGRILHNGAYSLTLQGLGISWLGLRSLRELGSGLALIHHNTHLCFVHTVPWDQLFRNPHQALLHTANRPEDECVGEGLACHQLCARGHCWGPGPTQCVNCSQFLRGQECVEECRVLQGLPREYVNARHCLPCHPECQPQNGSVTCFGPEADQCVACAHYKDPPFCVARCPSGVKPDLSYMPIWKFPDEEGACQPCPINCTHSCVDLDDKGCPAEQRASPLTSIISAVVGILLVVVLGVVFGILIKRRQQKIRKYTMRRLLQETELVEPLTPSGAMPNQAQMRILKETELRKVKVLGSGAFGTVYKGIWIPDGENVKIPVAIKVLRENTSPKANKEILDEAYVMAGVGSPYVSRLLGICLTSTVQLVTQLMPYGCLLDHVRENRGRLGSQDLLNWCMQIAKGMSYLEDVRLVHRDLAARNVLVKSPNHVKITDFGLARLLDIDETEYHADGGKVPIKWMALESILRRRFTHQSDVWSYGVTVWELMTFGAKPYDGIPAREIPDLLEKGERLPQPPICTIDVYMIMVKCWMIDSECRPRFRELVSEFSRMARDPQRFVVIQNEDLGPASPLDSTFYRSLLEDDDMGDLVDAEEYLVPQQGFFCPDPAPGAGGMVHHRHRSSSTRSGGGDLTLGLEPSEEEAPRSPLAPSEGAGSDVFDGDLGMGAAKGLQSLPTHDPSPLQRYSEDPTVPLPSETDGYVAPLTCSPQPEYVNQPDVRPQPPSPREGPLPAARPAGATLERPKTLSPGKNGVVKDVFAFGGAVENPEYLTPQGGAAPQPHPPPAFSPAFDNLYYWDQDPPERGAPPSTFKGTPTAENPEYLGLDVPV
von Hippel-Lindau disease tumor suppressor/Receptor tyrosine-protein kinase erbB-2, sequence (P40337 whole entry): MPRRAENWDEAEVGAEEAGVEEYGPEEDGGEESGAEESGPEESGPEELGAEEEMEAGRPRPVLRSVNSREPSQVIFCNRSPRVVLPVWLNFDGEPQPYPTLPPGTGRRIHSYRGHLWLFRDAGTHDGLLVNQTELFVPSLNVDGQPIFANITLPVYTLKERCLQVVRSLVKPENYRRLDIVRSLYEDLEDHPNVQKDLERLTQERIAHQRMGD
Epidermal growth factor receptor (Homo sapiens, UniProt P00533, EX19DEL), sequence (P00533 whole entry, looked up, stated change not applied): as the sequence (P00533 whole entry) above
Epidermal growth factor receptor (Homo sapiens), P00533 [UNDEFINED MUTATION], sequence (P00533 whole entry, looked up, stated change not applied): as the sequence (P00533 whole entry) above

O=C(Nc1nccs1)C(c1cc(F)ccc1O)N1Cc2ccccc2C1=O (stereo unspecified)
IC50 (NCI-H1975 [1]): 2 nM | IC50 (A-431): 1900 nM

COc1cc2ncnc(N(Cc3ccc([N+](=O)[O-])cc3)c3ccc(F)c(Cl)c3)c2cc1OCCOCCOCCOCCC(=O)Nc1cccc2c1CN(C1CCC(=O)NC1=O)C2=O (stereo unspecified)
fold change (FC) [2]: 1000

Cc1ncsc1-c1ccc(CNC(=O)[C@@H]2C[C@@H](O)CN2C(=O)[C@@H](NC(=O)CCCCCCCCCCn2cc(COc3cc4ncnc(Nc5ccc(F)c(Cl)c5)c4cc3NC(=O)/C=C/CN3CCCCC3)nn2)C(C)(C)C)cc1
IC50 [3]: > 20000 nM | IC50 [4]: 6 nM | IC50 [5]: > 20000 nM | IC50 [6]: > 20000 nM

CN(C)C/C=C/C(=O)Nc1cc2c(Nc3ccc(F)c(Cl)c3)ncnc2cc1O[C@H]1CCOC1 [AFATINIB]
IC50 (NCI-H1975 [7]): 93 nM

Cc1ncsc1-c1ccc(CNC(=O)[C@@H]2C[C@@H](O)CN2C(=O)[C@@H](NC(=O)COCCOCCOc2ccc(-c3ccc4ncnc(Nc5ccc(OCc6cccc(F)c6)c(Cl)c5)c4c3)cc2)C(C)(C)C)cc1
DC50 [8]: 736 nM | DC50 [9]: 102 nM

O=C1CCC(N2C(=O)c3cccc(NCCOCCOCCOCCN4CCN(c5ccc(-c6ccc7c(c6)C(=O)N(C(C(=O)Nc6nccs6)c6ccccc6)C7)cn5)CC4)c3C2=O)C(=O)N1 (stereo unspecified)
IC50 (BaF3): 96 nM
